{
  "source": "patent US8962630B2",
  "about": "“Pyrrolopyrimidine compounds and their uses” (Novartis AG, priority 2008, dated 2015)",
  "key": {"pRb negative cells": {"test_system": "pRb negative cells", "assay": "cell proliferation of pRb negative cells", "type": "cell-based", "settings": "high concentrations"}, "CDK2/cyclin A": {"molecular_target": "CDK2/cyclin A (Homo sapiens (Human), UniProt P24941)", "assay": "CDK2/Cyclin A enzymatic activity assay (IMAP-FP)", "type": "biochemical", "settings": "for pIC50: Table 2, read-out: CDK2"}, "CDK1/cyclin B": {"molecular_target": "CDK1/cyclin B (Homo sapiens (Human), UniProt P06493)", "sequence (P06493 whole entry, species assumed)": "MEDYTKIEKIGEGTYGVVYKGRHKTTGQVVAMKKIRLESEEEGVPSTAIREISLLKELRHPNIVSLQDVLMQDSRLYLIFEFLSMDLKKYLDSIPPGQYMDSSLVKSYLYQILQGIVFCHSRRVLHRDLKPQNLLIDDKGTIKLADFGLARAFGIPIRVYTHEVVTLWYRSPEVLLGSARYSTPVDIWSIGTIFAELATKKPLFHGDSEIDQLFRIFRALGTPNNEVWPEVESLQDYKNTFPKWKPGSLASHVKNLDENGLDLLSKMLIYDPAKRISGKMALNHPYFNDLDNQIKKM", "sequence (P14635 whole entry partner, species assumed)": "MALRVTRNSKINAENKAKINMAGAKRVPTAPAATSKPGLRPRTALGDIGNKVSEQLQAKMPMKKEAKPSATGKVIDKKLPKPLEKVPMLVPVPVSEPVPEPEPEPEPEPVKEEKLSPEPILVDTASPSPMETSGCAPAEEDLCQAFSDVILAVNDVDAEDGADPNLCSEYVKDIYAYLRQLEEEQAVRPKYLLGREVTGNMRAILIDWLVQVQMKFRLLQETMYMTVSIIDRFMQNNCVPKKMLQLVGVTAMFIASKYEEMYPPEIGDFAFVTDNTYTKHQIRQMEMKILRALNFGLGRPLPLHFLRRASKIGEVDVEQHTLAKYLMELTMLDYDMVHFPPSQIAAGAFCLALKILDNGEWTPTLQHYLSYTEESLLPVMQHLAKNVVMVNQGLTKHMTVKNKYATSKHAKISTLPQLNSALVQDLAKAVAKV", "assay": "CDK1/Cyclin B enzymatic activity assay (IMAP-FP)", "type": "biochemical", "settings": "for pIC50: Table 2, 20 μM ATP, read-out: CDK1", "text": "A 384-well microtiter IMAP-FPT™ (Molecular Devices Trade Mark Technology) endpoint assay was used for CDK1/cyclin B kinase activity measurements. The same assay was used for IC50 determination of small molecule inhibitors."}, "cell cycle": {"test_system": "cell cycle", "assay": "cell cycle analysis", "type": "cell-based", "settings": "up to 10 uM"}, "CDK4/cyclin D1": {"molecular_target": "CDK4/cyclin D1 (Homo sapiens (Human), UniProt P11802)", "sequence (P11802 whole entry)": "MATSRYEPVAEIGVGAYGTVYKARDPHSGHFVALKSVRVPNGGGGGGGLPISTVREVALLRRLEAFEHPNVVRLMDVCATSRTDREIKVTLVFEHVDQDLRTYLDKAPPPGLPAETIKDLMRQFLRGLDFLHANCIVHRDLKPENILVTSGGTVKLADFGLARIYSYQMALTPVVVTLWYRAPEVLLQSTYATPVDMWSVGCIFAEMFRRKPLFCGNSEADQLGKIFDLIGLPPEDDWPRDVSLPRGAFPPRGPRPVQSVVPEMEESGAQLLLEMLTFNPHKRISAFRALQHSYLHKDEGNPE", "sequence (P24385 whole entry partner)": "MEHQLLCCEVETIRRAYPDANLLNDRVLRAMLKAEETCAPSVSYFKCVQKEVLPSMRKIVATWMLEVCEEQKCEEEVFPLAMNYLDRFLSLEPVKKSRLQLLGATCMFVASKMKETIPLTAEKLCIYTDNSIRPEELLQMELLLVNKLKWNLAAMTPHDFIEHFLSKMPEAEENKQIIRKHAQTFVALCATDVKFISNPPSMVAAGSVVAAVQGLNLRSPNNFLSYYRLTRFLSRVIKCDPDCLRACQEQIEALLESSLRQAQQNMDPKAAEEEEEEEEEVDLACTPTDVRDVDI", "assay": "CDK4/Cyclin D1 enzymatic activity assay (Lance TR-FRET)", "type": "biochemical", "settings": "for pIC50: Table 2, 3 μM ATP, read-out: CDK4", "outline": "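IC50 from a TR-FRET endpoint read of phospho-pRb(S780) after EDTA quench. Reaction: 60 min, room temperature, 3 μM ATP, 175 nM pRb152 substrate, 0.3 nM Sf21-derived His6-CDK4/GST-cyclin D1, pH 7.5 HEPES with MgCl2/MnCl2, 2% DMSO, inhibitor 0.005-10 μM.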"}},
  "note": "pIC50: −log10 of the molar value. Like-named read-outs stand apart in the source and are kept apart here.",
  "data": [
    {"compound": "CN(C)C(=O)c1cc2cnc(Nc3ccc(N4CCNCC4)cc3)nc2n1C1CCCC1", "note": "[Example 200, reference compound]", "values": [
      {"measurement": "inhibition of cell proliferation of pRb negative cells", "setting": "pRb negative cells", "value": "does inhibit the cell proliferation of pRb negative cells at high concentrations"},
      {"measurement": "IC50", "setting": "CDK2/cyclin A; Table 4, read-out: IC50 (μM) CDK2", "value": "> 1.4", "unit": "µM"},
      {"measurement": "IC50", "setting": "CDK1/cyclin B; Table 4, read-out: IC50 (μM) CDK1", "value": "> 1.6", "unit": "µM"},
      {"measurement": "cell cycle arrest phase", "setting": "cell cycle", "value": "starts to induce G2/M phase blocks at 1 and 10 uM concentrations"},
      {"measurement": "IC50", "setting": "CDK4/cyclin D1; Table 4, read-out: IC50 (μM) CDK4", "value": 0.005, "unit": "µM"}
    ]},
    {"compound": "CN(C)C(=O)c1cc2cnc(Nc3ccc(N4CCC(O)CC4)cn3)nc2n1C1CCCC1", "note": "[Example 20, 7-Cyclopentyl-2-(4-hydroxy-3,4,5,6-tetrahydro-2H-[1,3′]bipyridinyl-6′-ylamino)-7H-pyrrolo[2,3-d]pyrimidine-6-carboxylic acid dimethylamide]", "values": [
      {"measurement": "pIC50", "setting": "CDK2/cyclin A", "value": "< 4.82"},
      {"measurement": "pIC50", "setting": "CDK1/cyclin B", "value": "< 4.82"},
      {"measurement": "pIC50", "setting": "CDK4/cyclin D1", "value": "7.00 to 8.00"}
    ]},
    {"compound": "CN(C)C(=O)c1cc2cnc(Nc3ccc(N4CC[C@H](O)C4)cn3)nc2n1C1CCCC1", "note": "[Example 39, 7-Cyclopentyl-2-[5-((S)-3-hydroxy-pyrrolidin-1-yl)-pyridin-2-ylamino]-7H-pyrrolo[2,3-d]pyrimidine-6-carboxylic acid dimethylamide]", "values": [
      {"measurement": "pIC50", "setting": "CDK2/cyclin A", "value": "< 4.82"},
      {"measurement": "pIC50", "setting": "CDK1/cyclin B", "value": "< 4.82"},
      {"measurement": "pIC50", "setting": "CDK4/cyclin D1", "value": "7.00 to 8.00"}
    ]},
    {"compound": "CN(C)C(=O)c1cc2cnc(Nc3ccc(N4CCNC(=O)C4)cn3)nc2n1C1CCCC1", "note": "[Example 4, 7-Cyclopentyl-2-[5-(3-oxo-piperazin-1-yl)-pyridin-2-ylamino]-7H-pyrrolo[2,3-d]pyrimidine-6-carboxylic acid dimethylamide]", "values": [
      {"measurement": "pIC50", "setting": "CDK2/cyclin A", "value": "< 4.82"},
      {"measurement": "pIC50", "setting": "CDK1/cyclin B", "value": "< 4.82"},
      {"measurement": "pIC50", "setting": "CDK4/cyclin D1", "value": "7.00 to 8.00"}
    ]},
    {"compound": "CC(C)N1CCC(c2ccc(Nc3ncc4cc(C(=O)N(C)C)n(C5CCCC5)c4n3)nc2)CC1", "note": "[Example 80, 7-Cyclopentyl-2-(1′-isopropyl-1′,2′,3′,4′,5′,6′-hexahydro-[3,4′]bipyridinyl-6-ylamino)-7H-pyrrolo[2,3-d]pyrimidine-6-carboxylic acid dimethylamide]", "values": [
      {"measurement": "pIC50", "setting": "CDK2/cyclin A", "value": "< 4.82"},
      {"measurement": "pIC50", "setting": "CDK1/cyclin B", "value": "< 4.82"},
      {"measurement": "pIC50", "setting": "CDK4/cyclin D1", "value": "7.00 to 8.00"}
    ]},
    {"compound": "CN(C)C(=O)c1cc2cnc(Nc3ccc(N4CCNCC4)nn3)nc2n1C1CCCC1", "note": "[Example 67, 7-Cyclopentyl-2-(6-piperazin-1-yl-pyridazin-3-ylamino)-7H-pyrrolo[2,3-d]pyrimidine-6-carboxylic acid dimethylamide]", "values": [
      {"measurement": "pIC50", "setting": "CDK2/cyclin A", "value": "< 4.82"},
      {"measurement": "pIC50", "setting": "CDK1/cyclin B", "value": "< 4.82"},
      {"measurement": "pIC50", "setting": "CDK4/cyclin D1", "value": "7.00 to 8.00"}
    ]},
    {"compound": "C[C@@H]1CN(Cc2ccc(Nc3ncc4cc(C(=O)N(C)C)n(C5CCCC5)c4n3)nc2)C[C@H](C)N1", "note": "[Example 75, 7-Cyclopentyl-2-[5-((3S,5R)-3,5-dimethyl-piperazin-1-ylmethyl)-pyridin-2-ylamino]-7H-pyrrolo[2,3-d]pyrimidine-6-carboxylic acid dimethylamide]", "values": [
      {"measurement": "pIC50", "setting": "CDK2/cyclin A", "value": "< 4.82"},
      {"measurement": "pIC50", "setting": "CDK1/cyclin B", "value": "< 4.82"},
      {"measurement": "pIC50", "setting": "CDK4/cyclin D1", "value": "7.00 to 8.00"}
    ]},
    {"compound": "CN(C)C(=O)c1cc2cnc(Nc3ccc(N(C)CCN)cn3)nc2n1C1CCCC1", "note": "[Example 59, 2-{5-[(2-Amino-ethyl)-methyl-amino]-pyridin-2-ylamino}-7-cyclopentyl-7H-pyrrolo[2,3-d]pyrimidine-6-carboxylic acid dimethylamide]", "values": [
      {"measurement": "pIC50", "setting": "CDK2/cyclin A", "value": "< 4.82"},
      {"measurement": "pIC50", "setting": "CDK1/cyclin B", "value": "< 4.82"},
      {"measurement": "pIC50", "setting": "CDK4/cyclin D1", "value": "7.00 to 8.00"}
    ]},
    {"compound": "CN(C)C(=O)c1cc2cnc(Nc3ccc(N4CCN(CCO)CC4)nn3)nc2n1C1CCCC1", "note": "[Example 37, 7-Cyclopentyl-2-{6-[4-(2-hydroxy-ethyl)-piperazin-1-yl]-pyridazin-3-ylamino}-7H-pyrrolo[2,3-d]pyrimidine-6-carboxylic acid dimethylamide]", "values": [
      {"measurement": "pIC50", "setting": "CDK2/cyclin A", "value": "< 4.82"},
      {"measurement": "pIC50", "setting": "CDK1/cyclin B", "value": "< 4.82"},
      {"measurement": "pIC50", "setting": "CDK4/cyclin D1", "value": "7.00 to 8.00"}
    ]},
    {"compound": "CN(C)C(=O)c1cc2cnc(Nc3ccc(N4CC(O)C4)cn3)nc2n1C1CCCC1", "note": "[Example 32, 7-Cyclopentyl-2-[5-(3-hydroxy-azetidin-1-yl)-pyridin-2-ylamino]-7H-pyrrolo[2,3-d]pyrimidine-6-carboxylic acid dimethylamide]", "values": [
      {"measurement": "pIC50", "setting": "CDK2/cyclin A", "value": "< 4.82"},
      {"measurement": "pIC50", "setting": "CDK1/cyclin B", "value": "< 4.82"},
      {"measurement": "pIC50", "setting": "CDK4/cyclin D1", "value": "7.00 to 8.00"}
    ]},
    {"compound": "CC(C)N1CCN(c2ccc(Nc3ncc4cc(C(=O)N(C)C)n(C5CCCC5)c4n3)nn2)CC1", "note": "[Example 70, 7-Cyclopentyl-2-[6-(4-isopropyl-piperazin-1-yl)-pyridazin-3-ylamino]-7H-pyrrolo[2,3-d]pyrimidine-6-carboxylic acid dimethylamide]", "values": [
      {"measurement": "pIC50", "setting": "CDK2/cyclin A", "value": "< 4.82"},
      {"measurement": "pIC50", "setting": "CDK1/cyclin B", "value": "< 4.82"},
      {"measurement": "pIC50", "setting": "CDK4/cyclin D1", "value": "7.00 to 8.00"}
    ]}
  ]
}
